Data from US8501936B2 (priority 2009, dated 2013).

Assays:
human JAK2 = human JAK2 (Homo sapiens (Human), UniProt O60674); details: read-out: JAK2 IC50
human FAK = human FAK (Homo sapiens (Human), UniProt Q05397); details: read-out: FAK IC50
Chain of human FAK (Q05397 whole entry): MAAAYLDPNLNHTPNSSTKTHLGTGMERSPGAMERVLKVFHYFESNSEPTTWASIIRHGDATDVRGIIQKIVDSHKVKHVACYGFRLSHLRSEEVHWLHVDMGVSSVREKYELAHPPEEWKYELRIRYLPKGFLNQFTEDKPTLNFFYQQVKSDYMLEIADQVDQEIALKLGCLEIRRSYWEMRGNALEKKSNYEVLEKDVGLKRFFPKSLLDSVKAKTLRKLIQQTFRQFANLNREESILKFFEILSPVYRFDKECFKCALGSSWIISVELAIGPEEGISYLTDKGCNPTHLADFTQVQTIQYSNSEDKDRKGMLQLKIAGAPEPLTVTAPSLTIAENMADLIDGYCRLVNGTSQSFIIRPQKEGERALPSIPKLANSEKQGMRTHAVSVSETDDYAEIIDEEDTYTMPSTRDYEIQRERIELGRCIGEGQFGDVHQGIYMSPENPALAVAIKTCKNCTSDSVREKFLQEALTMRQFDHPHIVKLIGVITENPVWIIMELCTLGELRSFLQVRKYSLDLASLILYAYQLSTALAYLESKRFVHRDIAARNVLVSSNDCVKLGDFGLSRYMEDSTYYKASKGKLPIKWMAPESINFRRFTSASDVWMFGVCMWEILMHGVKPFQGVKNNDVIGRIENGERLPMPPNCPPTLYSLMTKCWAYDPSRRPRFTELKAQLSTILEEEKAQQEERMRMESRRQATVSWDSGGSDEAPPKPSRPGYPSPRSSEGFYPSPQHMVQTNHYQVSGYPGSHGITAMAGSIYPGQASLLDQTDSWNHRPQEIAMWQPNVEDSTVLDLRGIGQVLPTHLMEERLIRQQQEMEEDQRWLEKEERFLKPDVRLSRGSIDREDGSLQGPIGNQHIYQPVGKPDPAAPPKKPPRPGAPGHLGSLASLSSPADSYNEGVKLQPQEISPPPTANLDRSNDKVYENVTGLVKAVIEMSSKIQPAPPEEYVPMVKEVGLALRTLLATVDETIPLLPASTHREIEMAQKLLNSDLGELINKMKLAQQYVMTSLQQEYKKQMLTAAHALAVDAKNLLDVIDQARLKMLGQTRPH

Chain of human JAK2 (O60674 815-1132): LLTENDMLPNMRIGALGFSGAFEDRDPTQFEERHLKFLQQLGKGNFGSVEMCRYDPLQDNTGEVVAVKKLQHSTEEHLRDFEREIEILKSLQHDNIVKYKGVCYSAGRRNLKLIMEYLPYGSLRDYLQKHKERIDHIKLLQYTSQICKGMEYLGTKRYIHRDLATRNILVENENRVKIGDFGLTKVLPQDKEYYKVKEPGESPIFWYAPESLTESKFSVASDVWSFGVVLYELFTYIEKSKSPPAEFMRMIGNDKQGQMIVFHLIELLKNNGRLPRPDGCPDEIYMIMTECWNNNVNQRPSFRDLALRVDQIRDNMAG

SMILES: CS(=O)(=O)c1ccc(-c2cccn3nc(Nc4ccc5c(c4)CCC(N4CCOCC4)CC5)nc23)cc1 (centres unmarked) [Example 145, [8-(4-Methanesulfonyl-phenyl)-[1,2,4]triazolo[1,5-a]pyridin-2-yl]-(7-morpholin-4-yl-6,7,8,9-tetrahydro-5H-benzocyclohepten-2-yl)-amine]
- IC50 (human JAK2): 1.55 nM
- IC50 (human FAK): 671 nM

SMILES: CS(=O)(=O)c1ccc(-c2cccn3nc(NCCc4ccccn4)nc23)cc1 [Example 406, [8-(4-Methanesulfonyl-phenyl)-[1,2,4]triazolo[1,5-a]pyridin-2-yl]-(2-pyridin-2-yl-ethyl)-amine]
- IC50 (human JAK2): 10000 nM
- IC50 (human FAK): 10000 nM

SMILES: CN1CCN(Cc2ccc(Nc3nc4c(-c5ccc(S(C)(=O)=O)cc5)cccn4n3)cc2)CC1 [Example 44, [8-(4-Methanesulfonyl-phenyl)-[1,2,4]triazolo[1,5-a]pyridin-2-yl]-[4-(4-methyl-piperazin-1-ylmethyl)-phenyl]-amine]
- IC50 (human JAK2): 2.4 nM
- IC50 (human FAK): 1130 nM

SMILES: CC(C)COc1ccc(C(F)(F)F)cc1-c1cccn2nc(Nc3ccc4c(c3)CCN(CC(=O)N(C)C)CC4)nc12 [Example 380]
- IC50 (human JAK2): 3000 nM
- IC50 (human FAK): 3000 nM

SMILES: COc1ccccc1-c1cccn2nc(Nc3ccc(N4CCN(C)CC4)cc3)nc12 [Example 55, [8-(2-Methoxy-phenyl)-[1,2,4]triazolo[1,5-a]pyridin-2-yl]-[4-(4-methyl-piperazin-1-yl)-phenyl]-amine]
- IC50 (human JAK2): 38.4 nM
- IC50 (human FAK): 3000 nM

SMILES: CN1CCN(c2ccc(Nc3nc4cccc(-c5ccc(NS(C)(=O)=O)cc5)n4n3)cc2)CC1 [Example 84, N-(4-{2-[4-(4-Methyl-piperazin-1-yl)-phenylamino]-[1,2,4]triazolo[1,5-a]pyridin-5-yl}-phenyl)-methanesulfonamide]
- IC50 (human JAK2): 2.8 nM
- IC50 (human FAK): 2280 nM

SMILES: CN1CCN(c2ccc(Nc3nc4c(-c5cccc(CN(C)S(C)(=O)=O)c5)cccn4n3)cc2)CC1 [Example 175, N-Methyl-N-(3-{2-[4-(4-methyl-piperazin-1-yl)-phenylamino]-[1,2,4]triazolo[1,5-a]pyridin-8-yl}-benzyl)-methanesulfonamide]
- IC50 (human JAK2): 7.95 nM
- IC50 (human FAK): 3000 nM

SMILES: COCc1ccccc1-c1cccc2nc(Nc3ccc4c(c3)CCN(C(=O)OC(C)(C)C)CC4)nn12 [Example 226, 7-[5-(2-Methoxymethyl-phenyl)-[1,2,4]triazolo[1,5-a]pyridin-2-ylamino]-1,2,4,5-tetrahydro-benzo[d]azepine-3-carboxylic acid tert-butyl ester]
- IC50 (human JAK2): 650 nM
- IC50 (human FAK): 10000 nM

SMILES: CN1CCN(c2ccc(Nc3nc4c(Nc5ccccc5S(C)(=O)=O)cccn4n3)cc2)CC1 [Example 72, N(8)-(2-Methanesulfonyl-phenyl)-N(2)-[4-(4-methyl-piperazin-1-yl)-phenyl]-[1,2,4]triazolo[1,5-a]pyridine-2,8-diamine]
- IC50 (human JAK2): 8.3 nM
- IC50 (human FAK): 380 nM

SMILES: CN1CCN(c2cncc(Nc3nc4c(NCc5ccccc5N(C)S(C)(=O)=O)cccn4n3)n2)CC1 [Example 389, N-Methyl-N-(2-{[2-(4-methyl-3,4,5,6-tetrahydro-2H-[1,2′]bipyrazinyl-6′-ylamino)-[1,2,4]triazolo[1,5-a]pyridin-8-ylamino]-methyl}-phenyl)-methanesulfonamide]
- IC50 (human JAK2): 6500 nM
- IC50 (human FAK): 1060 nM

SMILES: CN1CCN(c2ccc(Nc3nc4c(C#Cc5ccccc5N(C)S(C)(=O)=O)cccn4n3)cc2)CC1 [Example 189, N-Methyl-N-(2-{2-[4-(4-methyl-piperazin-1-yl)-phenylamino]-[1,2,4]triazolo[1,5-a]pyridin-8-ylethynyl}-phenyl)-methanesulfonamide]
- IC50 (human JAK2): 2.61 nM
- IC50 (human FAK): 522 nM

SMILES: Cc1ccc(-n2cc(-c3cccn4nc(Nc5ccc(C6CCNCC6)cc5)nc34)cn2)cc1 [Example 289, (4-Piperidin-4-yl-phenyl)-[8-(1-p-tolyl-1H-pyrazol-4-yl)-[1,2,4]triazolo[1,5-a]pyridine-2-yl]-amine]
- IC50 (human JAK2): 4.04 nM
- IC50 (human FAK): 2420 nM

SMILES: COc1cccc(CNc2cccn3nc(Nc4ccnc(C)c4)nc23)c1 [Example 397, N(8)-(3-Methoxy-benzyl)-N(2)-(2-methyl-pyridin-4-yl)-[1,2,4]triazolo[1,5-a]pyridine-2,8-diamine]
- IC50 (human JAK2): 592 nM
- IC50 (human FAK): 10000 nM

SMILES: CCCOc1ccc(Cl)cc1-c1cccn2nc(Nc3ccc4c(c3)CCN(CC(=O)N(C)C)CC4)nc12 [Example 308, 2-{7-[8-(5-Chloro-2-propoxy-phenyl]-[1,2,4]triazolo[1,5a]pyridine-2-ylamino]1,2,4,5-tetrahydro-benzo[d]azepin-3-yl)-N,N-dimethyl-acetamide]
- IC50 (human JAK2): 365 nM
- IC50 (human FAK): 946 nM

SMILES: COc1ccccc1CNc1cccn2nc(Nc3ccc(C)nc3)nc12 [Example 403, N(8)-(2-Methoxy-benzyl)-N(2)-(6-methyl-pyridin-3-yl)-[1,2,4]triazolo[1,5-a]pyridine-2,8-diamine]
- IC50 (human JAK2): 27.6 nM
- IC50 (human FAK): 1880 nM

SMILES: CN1CCC(c2ccc(Nc3nc4c(Nc5ccccc5CN(C)S(C)(=O)=O)cccn4n3)cc2)CC1 [Example 174, N-Methyl-N-(2-{2-[4-(1-methyl-piperidin-4-yl)-phenylamino]-[1,2,4]triazolo[1,5-a]pyridin-8-ylamino}-benzyl)-methanesulfonamide]
- IC50 (human JAK2): 111 nM
- IC50 (human FAK): 10000 nM

SMILES: CN1CCN(c2ccc(Nc3nc4c(-c5cccc(S(C)(=O)=O)c5)cccn4n3)cc2)CC1 [Example 59, [8-(3-Methanesulfonyl-phenyl)-[1,2,4]triazolo[1,5-a]pyridin-2-yl]-[4-(4-methyl-piperazin-1-yl)-phenyl]-amine]
- IC50 (human JAK2): 3.3 nM
- IC50 (human FAK): 2590 nM

SMILES: CS(=O)(=O)c1ccc(-c2cccn3nc(Nc4ccc(OCCN5CCOCC5)cc4)nc23)cc1 [Example 26, [8-(4-Methanesulfonyl-phenyl)-[1,2,4]triazolo[1,5-a]pyridin-2-yl]-[4-(2-morpholin-4-yl-ethoxy)-phenyl]-amine]
- IC50 (human JAK2): 1.3 nM
- IC50 (human FAK): 585 nM

SMILES: CN1CCN(c2ccc(Nc3nc4c(-c5ccc(S(C)(=O)=O)cc5)cc(F)cn4n3)cc2)CC1 [Example 106, [6-Fluoro-8-(4-methanesulfonyl-phenyl)-[1,2,4]triazolo[1,5-a]pyridin-2-yl]-[4-(4-methyl-piperazin-1-yl)-phenyl]-amine]
- IC50 (human JAK2): 31.6 nM
- IC50 (human FAK): 3000 nM

SMILES: CC(C)(C)OC(=O)N1CCN(c2ccc(Nc3nc4cccc(-c5ccc(S(C)(=O)=O)cc5)n4n3)cc2)CC1 [Example 75, 4-{4-[5-(4-Methanesulfonyl-phenyl)-[1,2,4]triazolo[1,5-a]pyridin-2-ylamino]-phenyl}-piperazine-1-carboxylic acid tert-butyl ester]
- IC50 (human JAK2): 1.3 nM
- IC50 (human FAK): 359 nM

SMILES: CN1CCN(c2cccc(Nc3nc4c(NCc5ccccc5S(C)(=O)=O)cccn4n3)c2)CC1 [Example 139, N(8)-(2-Methanesulfonyl-benzyl)-N(2)-[3-(4-methyl-piperazin-1-yl)-phenyl]-[1,2,4]triazolo[1,5-a]pyridine-2,8-diamine]
- IC50 (human JAK2): 26.3 nM
- IC50 (human FAK): 200 nM

SMILES: COc1ccc(F)cc1-c1cccn2nc(Nc3ccc4c(c3)CCN(CC(=O)N(C)C)CC4)nc12 [Example 323, 2-{7-[8-(5-Fluoro-2-methoxy-phenyl)-[1,2,4]triazolo[1,5-a]pyridin-2-ylamino]-1,2,4,5-tetrahydro-3-benzazepin-3-yl}-N,N-dimethyl-acetamide]
- IC50 (human JAK2): 11.3 nM
- IC50 (human FAK): 691 nM

SMILES: COc1ncccc1-c1cccn2nc(Nc3ccc(C4CCNCC4)cc3)nc12 [Example 272]
- IC50 (human JAK2): 377 nM
- IC50 (human FAK): 10000 nM

SMILES: CN1CCN(c2ccc(Nc3nc4cccc(-c5ccc(CN6CCS(=O)(=O)CC6)cc5)n4n3)cc2)CC1 [Example 70, 5-{4-[(1,1-dioxidothiomorpholin-4-yl)methyl]phenyl}-N-[4-(4-methylpiperazin-1-yl)phenyl][1,2,4]triazolo[1,5-a]pyridin-2-amine]
- IC50 (human JAK2): 1.1 nM
- IC50 (human FAK): 291 nM

SMILES: CS(=O)(=O)c1ccc(-c2cccc3nc(Nc4ccc(OCCN5CCCC5)cc4)nn23)cc1 [Example 73, [5-(4-Methanesulfonyl-phenyl)-[1,2,4]triazolo[1,5-a]pyridin-2-yl]-[4-(2-pyrrolidin-1-yl-ethoxy)-phenyl]-amine]
- IC50 (human JAK2): 2.1 nM
- IC50 (human FAK): 227 nM

SMILES: COc1ncc(C(F)(F)F)cc1-c1cccn2nc(Nc3ccc(C4CCN(CC(=O)N(C)C)CC4)cc3)nc12 [Example 279, 2-(4-{4-[8-(2-Methoxy-5-trifluoromethyl-pyridin-3-yl)-[1,2,4]triazolo[1,5-a]pyridin-2-ylamino]-phenyl}-piperidin-1-yl)-N,N-dimethyl-acetamide]
- IC50 (human JAK2): 74.6 nM
- IC50 (human FAK): 10000 nM

SMILES: COc1ccccc1-c1cccn2nc(Nc3ccc4c(c3)CCN(CC(=O)N(C)C)CC4)nc12 [Example 313, 2-{7-[8-(2-Methoxy-phenyl)-[1,2,4]triazolo[1,5-a]pyridine-2-ylamino]-1,2,4,5-tetrahydro-3-benzazepin-3-yl}-N,N-dimethyl-acetamide]
- IC50 (human JAK2): 39.2 nM
- IC50 (human FAK): 10000 nM

SMILES: CN1CCN(c2ccc(Nc3nc4c(OCc5ccccc5C#N)cccn4n3)cc2)CC1 [Example 262, 2-{2-[4-(4-Methyl-piperazin-1-yl)-phenylamino]-[1,2,4]triazolo[1,5-a]pyridin-8-yloxymethyl}-benzonitrile]
- IC50 (human JAK2): 15.1 nM
- IC50 (human FAK): 2560 nM

SMILES: COc1ccc(CNc2cccn3nc(Nc4cccc(N5CCN(C)CC5)c4)nc23)cc1 [Example 393, N(8)-(4-Methoxy-benzyl)-N(2)-[3-(4-methyl-piperazin-1-yl)-phenyl]-[1,2,4]triazolo[1,5-a]pyridine-2,8-diamine]
- IC50 (human JAK2): 10000 nM
- IC50 (human FAK): 10000 nM

SMILES: CS(=O)(=O)c1ccc(-c2cccc3nc(Nc4ccc(CN5CCS(=O)(=O)CC5)cc4)nn23)cc1 [Example 115, N-{4-[(1,1-dioxidothiomorpholin-4-yl)methyl]phenyl}-5-[4-(methylsulfonyl)phenyl][1,2,4]triazolo[1,5-a]pyridin-2-amine]
- IC50 (human JAK2): 0.66 nM
- IC50 (human FAK): 1050 nM

SMILES: CN(c1ncccc1CNc1cccn2nc(Nc3ccc(N4CCN(CCO)CC4)cc3)nc12)S(C)(=O)=O [Example 155, N-{3-[(2-{4-[4-(2-Hydroxy-ethyl)-piperazin-1-yl]-phenylamino}-[1,2,4]triazolo[1,5-a]pyridin-8-ylamino)-methyl]-pyridin-2-yl}-N-methyl-methanesulfonamide]
- IC50 (human JAK2): 36 nM
- IC50 (human FAK): 379 nM
